Results from US20240294499A1, “TARGETED PROTEIN DEGRADATION USING BIFUNCTIONAL COMPOUNDS THAT BIND UBIQUITIN LIGASE AND TARGET MCL-1 PROTEIN” (Captor Therapeutics S.A., priority 2021, published 2024).

Legend:
MV-4-11 cells = experiment: Cell viability assay (CellTiter-Glo), MV-4-11; type: cell-based; conditions: 1% FBS; for IC50: Homo sapiens, MV4-11, 24 hours incubation, read-out: Average pIC50 by molecule MV-4-11 (converted)
Summary of the method: (§1)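 Luminescent ATP readout (CellTiter-Glo) at 24 hours measured viability, expressed relative to DMSO-treated wells. Compound was added directly to the medium as a 9–12-point threefold series starting at 30 uM, at 0.5% final DMSO. The medium contained FBS reduced to 1%.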

ARH-77 cells = experiment: Cell viability assay (CellTiter-Glo), ARH-77; type: cell-based; conditions: 1% FBS; for IC50: Homo sapiens, ARH-77, 24 hours incubation, read-out: Average pIC50 by molecule ARH-77 (converted)
Summary of the method: as §1

[1] = molecular target: T1, [MCL-1]-[compound of formula (I)]-[CRBN/DDB1] complex (Homo sapiens, UniProt Q07820+Q96SW2); experiment: HTRF ternary complex assay; type: binding; conditions: ternary complex formation; for EC50: read-out: HTRF ternary complex Average pEC50 by molecule (converted)
T1 sequence (Q07820 whole entry): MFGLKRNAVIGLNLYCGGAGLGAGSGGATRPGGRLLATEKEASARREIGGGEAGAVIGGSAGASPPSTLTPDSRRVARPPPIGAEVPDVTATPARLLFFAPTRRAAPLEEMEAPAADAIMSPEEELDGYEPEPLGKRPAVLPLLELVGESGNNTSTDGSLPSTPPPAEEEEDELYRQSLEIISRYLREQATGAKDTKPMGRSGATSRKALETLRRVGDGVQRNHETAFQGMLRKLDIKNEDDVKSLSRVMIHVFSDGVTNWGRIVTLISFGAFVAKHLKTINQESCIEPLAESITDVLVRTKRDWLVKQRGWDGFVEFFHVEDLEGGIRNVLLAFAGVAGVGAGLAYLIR
T1 sequence (Q96SW2 whole entry): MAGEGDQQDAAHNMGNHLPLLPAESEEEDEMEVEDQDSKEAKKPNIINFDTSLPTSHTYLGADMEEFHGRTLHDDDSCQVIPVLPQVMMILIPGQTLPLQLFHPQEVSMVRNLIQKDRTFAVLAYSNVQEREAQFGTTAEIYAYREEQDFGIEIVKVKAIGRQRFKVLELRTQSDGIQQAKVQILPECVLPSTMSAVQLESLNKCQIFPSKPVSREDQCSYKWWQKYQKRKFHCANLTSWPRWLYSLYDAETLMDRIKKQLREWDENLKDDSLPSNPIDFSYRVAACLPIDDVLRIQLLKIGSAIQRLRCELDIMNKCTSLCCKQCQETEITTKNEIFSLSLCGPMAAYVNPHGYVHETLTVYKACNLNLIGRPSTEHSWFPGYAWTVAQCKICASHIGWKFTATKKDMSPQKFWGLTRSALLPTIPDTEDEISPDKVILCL
T1 sequence (Q16531 whole entry partner): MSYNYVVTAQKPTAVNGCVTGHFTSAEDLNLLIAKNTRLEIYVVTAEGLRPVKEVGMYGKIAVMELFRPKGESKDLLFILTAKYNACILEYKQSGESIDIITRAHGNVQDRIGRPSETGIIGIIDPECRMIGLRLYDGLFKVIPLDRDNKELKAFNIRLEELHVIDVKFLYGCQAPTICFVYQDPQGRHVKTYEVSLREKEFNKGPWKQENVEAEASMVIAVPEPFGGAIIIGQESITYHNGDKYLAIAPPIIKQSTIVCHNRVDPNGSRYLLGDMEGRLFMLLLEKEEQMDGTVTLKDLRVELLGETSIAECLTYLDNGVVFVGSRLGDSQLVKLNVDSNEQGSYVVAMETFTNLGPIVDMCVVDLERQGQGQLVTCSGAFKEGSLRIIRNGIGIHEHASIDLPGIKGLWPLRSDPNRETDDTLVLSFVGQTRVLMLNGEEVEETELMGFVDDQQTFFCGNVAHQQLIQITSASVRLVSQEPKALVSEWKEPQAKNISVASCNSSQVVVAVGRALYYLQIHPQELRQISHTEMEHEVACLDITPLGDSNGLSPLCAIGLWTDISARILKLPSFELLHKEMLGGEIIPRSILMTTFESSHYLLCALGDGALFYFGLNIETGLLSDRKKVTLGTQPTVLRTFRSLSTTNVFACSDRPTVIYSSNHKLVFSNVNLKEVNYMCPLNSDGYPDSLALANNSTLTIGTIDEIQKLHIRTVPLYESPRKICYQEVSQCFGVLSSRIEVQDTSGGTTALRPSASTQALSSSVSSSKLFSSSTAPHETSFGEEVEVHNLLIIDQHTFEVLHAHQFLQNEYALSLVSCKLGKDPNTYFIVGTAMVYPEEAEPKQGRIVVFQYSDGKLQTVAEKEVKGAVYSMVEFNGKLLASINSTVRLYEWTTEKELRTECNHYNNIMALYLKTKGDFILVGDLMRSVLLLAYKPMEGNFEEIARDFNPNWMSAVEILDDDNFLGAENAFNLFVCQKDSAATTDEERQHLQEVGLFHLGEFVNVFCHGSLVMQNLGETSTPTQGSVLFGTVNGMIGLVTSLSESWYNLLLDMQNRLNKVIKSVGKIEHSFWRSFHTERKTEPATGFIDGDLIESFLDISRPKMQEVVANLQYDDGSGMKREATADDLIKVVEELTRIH
Summary of the method: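 hMcl-1 and CRBN (mix at 48 nM and 105.6 nM) with Streptavidin-Eu cryptate and anti-6×His-d2 in PPI Europium buffer with 2 mM DTT; compounds in dose-response, 0.5% DMSO. Incubated 180 min at 25° C, TR-FRET 665/620 read. Bell-shaped curve fitted by Gaussian; EC50 reported.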

[2] = molecular target: T1, [MCL-1]-[compound of formula (I)]-[CRBN/DDB1] complex; experiment: AlphaLISA dose response ternary complex formation assay; type: binding; conditions: for EC50: read-out: AlphaLISA dose response Average pEC50 by molecule (converted)
Summary of the method: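 EC50 comes from dose–response of AlphaLISA luminescence (excitation 680, emission 615 nm), normalised between DMSO background and an internal positive control, with concentrations past the hook point dropped. Ternary complex formed by mixing bead-bound biotin-hMCL-1 and His-CRBN/DDB1 (protein solutions 40 and 200 nM) with compound in 2% DMSO, 30 min, 25 °C.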

Row | Compound | IC50 (MV-4-11 cells) [nM] | IC50 (ARH-77 cells) [nM] | EC50 [1] [nM] | EC50 [2] [nM] | Average pIC50 by molecule MV-4-11 (MV-4-11 cells; 24 hours incubation) | Average pIC50 by molecule ARH-77 (ARH-77 cells; 24 hours incubation) | HTRF ternary complex Average pEC50 by molecule [1] | AlphaLISA dose response Average pEC50 by molecule [2]
1 | Cc1nn(C)c(C)c1-c1c(Cl)ccc2c(CCCOc3cccc4cc(F)ccc34)c(C(=O)O)n(CCN3CCN(C(=O)Cn4c(C)nc5c(C(=O)NC6CCC(=O)NC6=O)ccc(C)c54)CC3)c12 (stereo not drawn) [Compound 270, 6-Chloro-1-{2-[4-(2-{4-[(2,6-dioxopiperidin-3-yl)carbamoyl]-2,7-dimethyl-1H-1,3-benzodiazol-1-yl}acetyl)piperazin-1-yl]ethyl}-3-{3-[(6-fluoronaphthalen-1-yl)oxy]propyl}-7-(1,3,5-trimethyl-1H-pyrazol-4-yl)-1H-indole-2-carboxylic acid] | ≤ 100 | > 10000 | < 10 | < 100 |  |  |  | 
2 | Cc1nn(C)c(C)c1-c1c(Cl)ccc2c(CCCOc3cccc4ccccc34)c(C(=O)O)n(CCN3CCC(NC(=O)COc4cccc5c4CN(C4CCC(=O)NC4=O)C5=O)CC3)c12 (stereo not drawn) [Compound 221, 6-chloro-1-{2-[4-(2-{[2-(2,6-dioxopiperidin-3-yl)-1-oxo-2,3-dihydro-1H-isoindol-4-yl]oxy}acetamido)piperidin-1-yl]ethyl}-3-[3-(naphthalen-1-yloxy)propyl]-7-(1,3,5-trimethyl-1H-pyrazol-4-yl)-1H-indole-2-carboxylic acid] | ≤ 10000 | > 31600 | < 100 | < 100 |  |  |  | 
3 | Cc1nn(C)c(C)c1-c1c(Cl)ccc2c(CCCOc3cccc4cc(F)ccc34)c(C(=O)O)n(CCCNC(=O)COc3cccc4c3CN(C3CCC(=O)NC3=O)C4=O)c12 (stereo not drawn) [Compound 330, 6-Chloro-1-[3-(2-{[2-(2,6-dioxopiperidin-3-yl)-1-oxo-2,3-dihydro-1H-isoindol-4-yl]oxy}acetamido)propyl]-3-{3-[(6-fluoronaphthalen-1-yl)oxy]propyl}-7-(1,3,5-trimethyl-1H-pyrazol-4-yl)-1H-indole-2-carboxylic acid] | ≤ 100 | > 10000 | < 100 | < 100 |  |  |  | 
4 | Cc1nn(C)c(C)c1-c1c(Cl)ccc2c(CCCOc3cccc4cc(F)ccc34)c(C(=O)O)n(CCCCCN(C)C(=O)COc3cccc4c3CN(C3CCC(=O)NC3=O)C4=O)c12 (stereo not drawn) [Compound 328, 6-Chloro-1-(5-(2-((2-(2,6-dioxopiperidin-3-yl)-1-oxoisoindolin-4-yl)oxy)-N-methylacetamido)pentyl)-3-(3-((6-fluoronaphthalen-1-yl)oxy)propyl)-7-(1,3,5-trimethyl-1H-pyrazol-4-yl)-1H-indole-2-carboxylic acid] | ≤ 31.6 | > 3160 | < 100 | < 100 |  |  |  | 
5 | Cc1nn(C)c(C)c1-c1c(Cl)ccc2c(CCCOc3cccc4cc(F)ccc34)c(C(=O)O)n(CCN3CCC4CN(C(=O)COc5cccc6c5CN(C5CCC(=O)NC5=O)C6=O)CC43)c12 (stereo not drawn) [Compound 301, 6-Chloro-1-{2-[5-(2-{[2-(2,6-dioxopiperidin-3-yl)-1-oxo-2,3-dihydro-1H-isoindol-4-yl]oxy}acetyl)-octahydropyrrolo[2,3-c]pyrrol-1-yl]ethyl}-3-{3-[(6-fluoronaphthalen-1-yl)oxy]propyl}-7-(1,3,5-trimethyl-1H-pyrazol-4-yl)-1H-indole-2-carboxylic acid] | ≤ 100 | > 10000 | < 10 | < 10 |  |  |  | 
6 | Cc1nn(C)c(C)c1-c1c(Cl)ccc2c(CCCOc3cccc4ccc(F)cc34)c(C(=O)O)n(CCN3CCN(C(=O)COc4cccc5c4CN(C4CCC(=O)NC4=O)C5=O)CC3)c12 (stereo not drawn) [Compound 354, 6-Chloro-1-(2-(4-(2-((2-(2,6-dioxopiperidin-3-yl)-1-oxoisoindolin-4-yl)oxy)acetyl)piperazin-1-yl)ethyl)-3-(3-((7-fluoronaphthalen-1-yl)oxy)propyl)-7-(1,3,5-trimethyl-1H-pyrazol-4-yl)-1H-indole-2-carboxylic acid] | ≤ 100 | > 10000 | < 100 | < 100 |  |  |  | 
7 | Cc1nn(C)c(C)c1-c1c(Cl)ccc2c(CCCOc3cccc4cc(F)ccc34)c(C(=O)O)n(CCN3CCN(CCOc4cccc5c4C(=O)N(C4CCC(=O)NC4=O)C5=O)CC3)c12 (stereo not drawn) [Compound 321, 6-Chloro-1-(2-(4-(2-((2-(2,6-dioxopiperidin-3-yl)-1,3-dioxoisoindolin-4-yl)oxy)ethyl)piperazin-1-yl)ethyl)-3-(3-((6-fluoronaphthalen-1-yl)oxy)propyl)-7-(1,3,5-trimethyl-1H-pyrazol-4-yl)-1H-indole-2-carboxylic acid] | ≤ 316 | > 10000 | < 100 | < 10 |  |  |  | 
8 | Cc1nn(C)c(C)c1-c1c(Cl)ccc2c(CCCOc3cccc4cc(F)ccc34)c(C(=O)O)n(CCN(C)CCN(C)C(=O)COc3cccc4c3CN(C3CCC(=O)NC3=O)C4=O)c12 (stereo not drawn) [Compound 327, 6-Chloro-1-(2-((2-(2-((2-(2,6-dioxopiperidin-3-yl)-1-oxoisoindolin-4-yl)oxy)-N-methylacetamido)ethyl)(methyl)amino)ethyl)-3-(3-((6-fluoronaphthalen-1-yl)oxy)propyl)-7-(1,3,5-trimethyl-1H-pyrazol-4-yl)-1H-indole-2-carboxylic acid] | ≤ 100 | > 10000 | < 10 | < 100 |  |  |  | 
9 | Cc1nn(C)c(C)c1-c1c(Cl)ccc2c(CCCOc3cccc4cc(F)ccc34)c(C(=O)O)n(CCN3CCC(Nc4cccc5c4C(=O)N(C4CCC(=O)NC4=O)C5=O)CC3)c12 (stereo not drawn) [Compound 308] | ≤ 316 | > 3160 | < 100 | < 100 |  |  |  | 
10 | Cc1nn(C)c(C)c1-c1c(Cl)ccc2c(CCCOc3cccc4cc(F)ccc34)c(C(=O)O)n(CCCOCCn3c(C)nc4c(C(=O)NC5CCC(=O)NC5=O)cccc43)c12 (stereo not drawn) [Compound 280, 6-Chloro-1-[3-(2-{4-[(2,6-dioxopiperidin-3-yl)carbamoyl]-2-methyl-1H-1,3-benzodiazol-1-yl}ethoxy)propyl]-3-{3-[(6-fluoronaphthalen-1-yl)oxy]propyl}-7-(1,3,5-trimethyl-1H-pyrazol-4-yl)-1H-indole-2-carboxylic acid] | ≤ 100 | > 3160 | < 10 | < 10 |  |  |  | 
11 | Cc1nn(C)c(C)c1-c1c(Cl)ccc2c(CCCOc3cccc4cc(F)ccc34)c(C(=O)O)n(CCN3CCN(C(=O)COc4cccc5c4CN(C4CCC(=O)NC4=O)C5=O)CC3)c12 (atropisomer, axis not shown; (Sa)) [Compound 295, (Sa)-6-Chloro-1-(2-(4-(2-((2-(2,6-dioxopiperidin-3-yl)-1-oxoisoindolin-4-yl)oxy)acetyl)piperazin-1-yl)ethyl)-3-(3-((6-fluoronaphthalen-1-yl)oxy)propyl)-7-(1,3,5-trimethyl-1H-pyrazol-4-yl)-1H-indole-2-carboxylic acid] |  |  |  |  | ≥7.5 | <5.0 | >7 | >7
12 | Cc1nn(C)c(C)c1-c1c(Cl)ccc2c(CCCOc3cccc4cc(F)ccc34)c(C(=O)O)n(CCCNC(=O)Cn3c(C)nc4c(C(=O)NC5CCC(=O)NC5=O)cccc43)c12 (stereo not drawn) [Compound 281, 6-Chloro-1-[3-(2-{4-[(2,6-dioxopiperidin-3-yl)carbamoyl]-2-methyl-1H-1,3-benzodiazol-1-yl}acetamido)propyl]-3-{3-[(6-fluoronaphthalen-1-yl)oxy]propyl}-7-(1,3,5-trimethyl-1H-pyrazol-4-yl)-1H-indole-2-carboxylic acid] | ≤ 100 | > 10000 | < 10 | < 100 |  |  |  | 
